# Source: paper PMC10141604, “Small-Molecule Inhibition of Androgen Receptor Dimerization as a Strategy against Prostate Cancer” (ACS Central Science, 2023)
# Experiments:
# [1] = test system: 22RV1; test: Clonogenic (colony forming) assay, 22RV1; format: cell-based; conditions: 2 and 20 μM, 16-18 days
# Method: 1.5× 10^3 cells/well of LNCaP or 22RV1 were seeded into a 6-well plate. After 1 day
# incubation, the medium of each well was removed and washed thrice using PBS. […]
# [2] = molecular target: T1, MR (Homo sapiens, UniProt P08235); test: Luciferase reporter assay for MR (HEK293T cells); format: cell-based; conditions: 10 μM, 5 nM aldosterone
# T1 construct: host or cells: HEK293T
# T1 sequence (P08235 1-984): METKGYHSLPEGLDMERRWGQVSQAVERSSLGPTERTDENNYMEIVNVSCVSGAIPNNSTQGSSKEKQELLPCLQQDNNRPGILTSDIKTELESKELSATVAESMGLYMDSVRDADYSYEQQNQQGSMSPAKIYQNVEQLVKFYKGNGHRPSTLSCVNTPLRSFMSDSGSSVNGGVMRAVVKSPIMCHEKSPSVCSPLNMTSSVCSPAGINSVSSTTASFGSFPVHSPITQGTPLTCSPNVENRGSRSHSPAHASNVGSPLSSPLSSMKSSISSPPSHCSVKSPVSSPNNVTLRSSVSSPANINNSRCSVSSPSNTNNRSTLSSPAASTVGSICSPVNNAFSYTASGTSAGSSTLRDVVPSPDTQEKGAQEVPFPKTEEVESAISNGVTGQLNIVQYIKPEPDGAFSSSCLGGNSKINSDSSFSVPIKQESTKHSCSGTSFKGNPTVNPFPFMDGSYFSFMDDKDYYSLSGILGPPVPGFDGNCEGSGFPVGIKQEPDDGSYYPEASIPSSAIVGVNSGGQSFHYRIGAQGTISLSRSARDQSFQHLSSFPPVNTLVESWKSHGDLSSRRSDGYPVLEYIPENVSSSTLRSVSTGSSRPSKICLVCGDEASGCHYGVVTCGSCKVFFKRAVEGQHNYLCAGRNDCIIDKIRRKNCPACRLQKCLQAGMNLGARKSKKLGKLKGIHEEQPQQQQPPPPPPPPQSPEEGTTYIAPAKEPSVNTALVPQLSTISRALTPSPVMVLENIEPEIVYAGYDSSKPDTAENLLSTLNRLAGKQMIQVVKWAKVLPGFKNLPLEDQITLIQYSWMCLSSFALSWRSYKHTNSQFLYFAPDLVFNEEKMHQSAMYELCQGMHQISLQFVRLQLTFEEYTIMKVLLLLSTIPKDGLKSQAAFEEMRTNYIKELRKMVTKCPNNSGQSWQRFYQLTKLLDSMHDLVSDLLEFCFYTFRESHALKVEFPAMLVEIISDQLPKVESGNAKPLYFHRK
# Method: Luciferase Reporter Assays for PR, GR, and MR
# PC3, HeLa, and HEK293T cells were cultured using 5% CSS RPMI-1640, 5% CSS RPMI-1640 and 10% FBS DMEM media in 96-well plates for 24 h, respectively. For PR induction, PC3 (1 × 10^4 cells/well) were transfected with 50 ng pcDNA3-PRB (#89130, Addgene), 24 ng pGL4.36[luc2P MMTV Hygro] (Promega) and 5 ng Renilla using HG-TransGeneTM transfection reagent (#TG-10012, Genomeditech) for 4 h. For GR induction, Hela (1 × 10^4 cells/well) were transfected with 71 ng pCMV -GR11 (#89105, Addgene), 24 ng pGL4.36[luc2P MMTV Hygro] (Promega) and 5 ng Renilla using lip3000 transfection reagent (#L3000075, Thermofisher) for 24 h. For MR induction, HEK293T (1 × 10^4 cells/well) were transfected with 71 ng pCMV-MR gifted by Liu et al. 28, 24 ng of pGL4.36[luc2P MMTV Hygro] (Promega) and 5 ng Renilla using lip3000 transfec tion reagent for 24 h. For the antagonistic models, 10 nM /well progesterone for PC3 cells , 1 nM/well dexamethasone for HeLa, and 5 nM/well aldosterone for HEK293T cells were added to stimulate the cells. Meanwhile, each cell line was treated with a series concentration of compounds (0.4, 2, and 10 μM). For the agonistic models, the cells were directly treated with the compounds without any hormones. Endogenous hormones progesterone, dexamethasone, and aldosterone were considered as agonists for PR, GR, and MR, respectively. The luciferase activities were assessed using the Dual-Glo Luciferase system (#E1910, Promega). […]
# [3] = test system: subcutaneous xenografts of LNCaP cells; test: LNCaP mouse xenograft study, intratumor injection; format: in vivo; conditions: 2.5 mg/kg/week; for tumor growth inhibition (TGI): LNCaP xenograft in CB17 SCID mice; for tumor volume and weight: versus vehicle
# Method: The animal protocols were in accordance with the guidelines of the Animal Welfare Council of China, and were performed by KCBIO company (Chengdu, China). All animal use and studies were performed in compliance with all relevant ethical regulations, and were approved by the Institutional Animal Care and Use Committee (IACUC) at Kangcheng Biotechnology Co., Ltd, Sichuan, China (IACUC-202010-m-001). In brief, male CB17 SCID mice (6-8 weeks old) were housed at a constant room temperature and fed a standard rodent diet and allowed free access to water. LNCaP cells (1 × 107) suspended in 0.1 ml PBS were injected subcutaneously into the right flank of eac h CB17 SCID mice. Once tumor size reached an average tumor volume of 110 mm 3, the mice were randomized into three groups with 6 mice per group, and then intratumor injection […]
# The tumor volumes were estimated by measuring length (L) and width (W) and […]
# calculating volume (V= 0.5 × L × W2). Finally, the mice were sacrificed and the tumors were harvested for hematoxylin and eosin (H&E) staining. […]
# Addgene), 24 ng pGL4.36[luc2P MMTV Hygro] […]
# For the antagonistic models, 10 nM /well progesterone for PC3 cells , 1 nM/well dexamethasone for HeLa, and 5 nM/well aldosterone for HEK293T cells were added to stimulate the cells. Meanwhile, each cell line was treated with a series concentration of compounds (0.4, 2, and 10 μM). For the agonistic models, the cells were directly treated with the compounds without any hormones. […]
# Luciferase system (#E1910, Promega).
# Cell Cycle and Apoptosis for LNCaP cells […]
# 48 h incubation by Cell Cycle Staining Kit (#CCS012, MULTI SCIENCES) using […]
MR antagonistic activity [2],SMILES,colony formation of 22RV1 [1],tumor growth inhibition (TGI) [3] [%],tumor volume and weight [3]
not observed,CC(=O)Cc1nsc(NC(=O)c2cc(-c3cccc(C(F)(F)F)c3)oc2C)n1 [Compound M17-B15],not,83.59,significantly inhibited
not observed,"CNC(=O)c1ccc(N2C(=S)N(c3ccc(C#N)c(C(F)(F)F)c3)C(=O)C2(C)C)cc1F [Enz, enzalutamide, reference compound]",not,51.35,significantly inhibited
